Source: ChEMBL document CHEMBL5236565, “Design, synthesis, and biological evaluation of novel 2'-methyl-2'-fluoro-6-methyl-7-alkynyl-7-deazapurine nucleoside analogs as anti-Zika virus agents” (Eur J Med Chem, 2022)

The molecules below were run on A549 (assay: Cytotoxicity against human A549 cells assessed as cell growth inhibition measured after 24 hrs by MTT assay). Conditions: not given.
Format: functional

Q: How did the CC50 turn out when `C#C[C@@]1(O)[C@H](O)[C@@H](CO)O[C@H]1n1ccc2c(N)ncnc21` was run?
A: > 50 µM

Q: For `Cc1cccc(C#Cc2cn([C@@H]3O[C@H](CO)[C@@H](O)[C@@]3(C)F)c3ncnc(C)c23)c1`, which CC50 is on record?
A: > 50 µM

Q: For `COCc1ccccc1C#Cc1cn([C@@H]2O[C@H](CO)[C@@H](O)[C@@]2(C)F)c2ncnc(C)c12`, which CC50 is on record?
A: > 50 µM

What follows are molecules tested against NS5 (Zika virus, UniProt A0A143MHK7) (assay: Binding affinity to N-terminal His-tagged recombinant ZIKV ZG-01 RdRp (272 to 903 residues) expressed in Escherichia coli rosetta by surface plasmon resonance assay). Conditions: not given.
NS5, sequence (A0A143MHK7 whole entry, the tested form may be a part): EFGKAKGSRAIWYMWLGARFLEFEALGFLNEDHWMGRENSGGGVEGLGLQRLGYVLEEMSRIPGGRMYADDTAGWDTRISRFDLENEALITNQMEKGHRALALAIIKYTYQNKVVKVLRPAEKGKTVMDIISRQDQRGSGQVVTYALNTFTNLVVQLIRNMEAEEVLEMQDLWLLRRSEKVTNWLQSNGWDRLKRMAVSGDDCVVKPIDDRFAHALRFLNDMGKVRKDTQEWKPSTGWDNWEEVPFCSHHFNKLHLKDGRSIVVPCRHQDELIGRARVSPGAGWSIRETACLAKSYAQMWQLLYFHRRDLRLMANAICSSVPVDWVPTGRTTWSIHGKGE

Q: Which Kd does the source give for `C#C[C@@]1(O)[C@H](O)[C@@H](CO)O[C@H]1n1ccc2c(N)ncnc21` here?
A: 3.43 µM

What follows are molecules tested on Zika virus (assay: Antiviral activity against ZIKV infected in human A549 cells at 50 uM by microtiter assay relative to control). Conditions: not given.
Format: functional

Q: How did the Activity turn out when `Cc1cccc(C#Cc2cn([C@@H]3O[C@H](CO)[C@@H](O)[C@@]3(C)F)c3ncnc(C)c23)c1` was run?
A: >90%

Q: With `COCc1ccccc1C#Cc1cn([C@@H]2O[C@H](CO)[C@@H](O)[C@@]2(C)F)c2ncnc(C)c12` as the molecule, how does the Activity read?
A: >90%

The molecules below were run on Zika virus (assay: Antiviral activity against ZIKV ZG-01 infected in human A549 cells assessed as reduction in viral induced cytopathic effect by measuring reduction in PFU measured after 4 days by neutral red staining based plaque assay). Conditions: ZG-01, A549, 96 h.
Format: functional, organism-based

Q: How did the EC50 turn out when `C#C[C@@]1(O)[C@H](O)[C@@H](CO)O[C@H]1n1ccc2c(N)ncnc21` was run?
A: 14 µM

Q: For `Cc1cccc(C#Cc2cn([C@@H]3O[C@H](CO)[C@@H](O)[C@@]3(C)F)c3ncnc(C)c23)c1`, which EC50 is on record?
A: 7.1 µM

Q: How did the EC50 turn out when `COCc1ccccc1C#Cc1cn([C@@H]2O[C@H](CO)[C@@H](O)[C@@]2(C)F)c2ncnc(C)c12` was run?
A: 13.5 µM

Same assay, conditions: ZG-01, A549, 96 h, time 4 day

Q: Which EC90 does the source give for `C#C[C@@]1(O)[C@H](O)[C@@H](CO)O[C@H]1n1ccc2c(N)ncnc21` here?
A: 30.9 µM

Q: `Cc1cccc(C#Cc2cn([C@@H]3O[C@H](CO)[C@@H](O)[C@@]3(C)F)c3ncnc(C)c23)c1` was tested. Which EC90 did it give?
A: 19.1 µM

Q: `COCc1ccccc1C#Cc1cn([C@@H]2O[C@H](CO)[C@@H](O)[C@@]2(C)F)c2ncnc(C)c12` was tested. Which EC90 did it give?
A: > 50 µM
